Measurements as given in ChEMBL document CHEMBL1201862, “PubChem BioAssay data set” (2004).
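Interpolation was linear, between the two tested concentrations surrounding the appropriate level; five concentrations were tested over 48 hours in 96-well plates. Abbreviation: GI50, concentration required for 50% inhibition of growth.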 The source made the active and inactive calls. No stated cut-off is given here; in the data, active = GI50 up to about 1.1 µM and inactive = higher.

What was measured:
Test in all cases: NCI tumour cell line growth inhibition, 48 h
OVCAR-8 = system: OVCAR-8
SF-295 = system: SF-295
HCC 2998 = system: HCC 2998
NCI-H522 = system: NCI-H522
786-0 = system: 786-0
ACHN = system: ACHN
K562 = system: K562
HT-29 = system: HT-29
EKVX = system: EKVX
MOLT-4 = system: MOLT-4
TK-10 = system: TK-10
BT-549 = system: BT-549
SNB-75 = system: SNB-75
Hs-578T = system: Hs-578T
KM12 = system: KM12
NCI/ADR-RES = system: NCI/ADR-RES
SK-MEL-5 = system: SK-MEL-5
HL-60 = system: HL-60
SN12C = system: SN12C
HCT-116 = system: HCT-116
SNB-19 = system: SNB-19
MDA-MB-231 = system: MDA-MB-231
HOP-62 = system: HOP-62
MDA-N = system: MDA-N
UACC-62 = system: UACC-62
A498 = system: A498
SF-268 = system: SF-268
MCF7 = system: MCF7
DU-145 = system: DU-145
M14 = system: M14
SF-539 = system: SF-539
COLO 205 = system: COLO 205
IGROV-1 = system: IGROV-1
SK-OV-3 = system: SK-OV-3
OVCAR-5 = system: OVCAR-5
SW-620 = system: SW-620
PC-3 = system: PC-3
UO-31 = system: UO-31
OVCAR-3 = system: OVCAR-3
U-251 = system: U-251
SK-MEL-28 = system: SK-MEL-28
NCI-H226 = system: NCI-H226
A549 = system: A549
CCRF-CEM = system: CCRF-CEM
T47D = system: T47D
UACC-257 = system: UACC-257
OVCAR-4 = system: OVCAR-4
CAKI-1 = system: CAKI-1
NCI-H23 = system: NCI-H23
NCI-H460 = system: NCI-H460
HCT-15 = system: HCT-15
MDA-MB-435 = system: MDA-MB-435
HOP-92 = system: HOP-92
RXF 393 = system: RXF 393
LOX IMVI = system: LOX IMVI
SK-MEL-2 = system: SK-MEL-2
RPMI-8226 = system: RPMI-8226
SR = system: SR
Malme-3M = system: Malme-3M

Structure (SMILES): O/N=N\c1nc(-c2cccnc2)nc2ccccc12
- GI50 (OVCAR-8): > 100 µM (inactive)
- GI50 (SF-295): > 100 µM (inactive)
- GI50 (HCC 2998): 87.9 µM (inactive)
- GI50 (NCI-H522): > 100 µM (inactive)
- GI50 (786-0): > 100 µM (inactive)
- GI50 (ACHN): > 100 µM (inactive)
- GI50 (K562): > 100 µM (inactive)
- GI50 (HT-29): 47.8 µM (inactive)
- GI50 (EKVX): > 100 µM (inactive)
- GI50 (MOLT-4): > 100 µM (inactive)
- GI50 (TK-10): > 100 µM (inactive)
- GI50 (BT-549): > 100 µM (inactive)
- GI50 (SNB-75): 33.3 µM (inactive)
- GI50 (Hs-578T): > 100 µM (inactive)
- GI50 (KM12): > 100 µM (inactive)
- GI50 (NCI/ADR-RES): > 100 µM (inactive)
- GI50 (SK-MEL-5): > 100 µM (inactive)
- GI50 (HL-60): > 100 µM (inactive)
- GI50 (SN12C): > 100 µM (inactive)
- GI50 (HCT-116): > 100 µM (inactive)
- GI50 (SNB-19): > 100 µM (inactive)
- GI50 (MDA-MB-231): > 100 µM (inactive)
- GI50 (HOP-62): > 100 µM (inactive)
- GI50 (MDA-N): > 100 µM (inactive)
- GI50 (UACC-62): > 100 µM (inactive)
- GI50 (A498): > 100 µM (inactive)
- GI50 (SF-268): > 100 µM (inactive)
- GI50 (MCF7): > 100 µM (inactive)
- GI50 (DU-145): > 100 µM (inactive)
- GI50 (M14): > 100 µM (inactive)
- GI50 (SF-539): > 100 µM (inactive)
- GI50 (COLO 205): 75.5 µM (inactive)
- GI50 (IGROV-1): > 100 µM (inactive)
- GI50 (SK-OV-3): > 100 µM (inactive)
- GI50 (OVCAR-5): > 100 µM (inactive)
- GI50 (SW-620): > 100 µM (inactive)
- GI50 (PC-3): > 100 µM (inactive)
- GI50 (UO-31): 17.5 µM (inactive)
- GI50 (OVCAR-3): > 100 µM (inactive)
- GI50 (U-251): > 100 µM (inactive)
- GI50 (SK-MEL-28): > 100 µM (inactive)
- GI50 (NCI-H226): > 100 µM (inactive)
- GI50 (A549): > 100 µM (inactive)
- GI50 (CCRF-CEM): > 100 µM (inactive)
- GI50 (T47D): > 100 µM (inactive)
- GI50 (UACC-257): > 100 µM (inactive)
- GI50 (OVCAR-4): > 100 µM (inactive)
- GI50 (CAKI-1): > 100 µM (inactive)
- GI50 (NCI-H23): > 100 µM (inactive)
- GI50 (NCI-H460): > 100 µM (inactive)
- GI50 (HCT-15): 96.8 µM

Structure (SMILES): CNc1nc(N(C)C)nc(N(C)C)n1
- GI50 (BT-549): 1320 µM (inactive)
- GI50 (Hs-578T): 2100 µM (inactive)
- GI50 (NCI/ADR-RES): 1140 µM (inactive)
- GI50 (MDA-MB-231): 955 µM (inactive)
- GI50 (MDA-N): 855 µM (inactive)
- GI50 (MCF7): 771 µM (inactive)
- GI50 (DU-145): 2790 µM (inactive)
- GI50 (M14): 1210 µM (inactive)
- GI50 (PC-3): 1580 µM (inactive)
- GI50 (NCI-H226): 1120 µM (inactive)
- GI50 (T47D): 578 µM (inactive)
- GI50 (MDA-MB-435): 1110 µM (inactive)

Structure (SMILES): Cc1ccc(S(=O)(=O)Nc2nnc(S(N)(=O)=O)s2)cc1
- GI50 (OVCAR-8): > 100 µM (inactive)
- GI50 (SF-295): > 100 µM (inactive)
- GI50 (HCC 2998): > 100 µM (inactive)
- GI50 (HOP-92): > 100 µM (inactive)
- GI50 (NCI-H522): > 100 µM (inactive)
- GI50 (786-0): > 100 µM (inactive)
- GI50 (ACHN): > 100 µM (inactive)
- GI50 (K562): > 100 µM (inactive)
- GI50 (EKVX): > 100 µM (inactive)
- GI50 (MOLT-4): > 100 µM (inactive)
- GI50 (TK-10): > 100 µM (inactive)
- GI50 (BT-549): > 100 µM (inactive)
- GI50 (RXF 393): > 100 µM (inactive)
- GI50 (Hs-578T): > 100 µM (inactive)
- GI50 (KM12): > 100 µM (inactive)
- GI50 (NCI/ADR-RES): > 100 µM (inactive)
- GI50 (SK-MEL-5): > 100 µM (inactive)
- GI50 (SN12C): > 100 µM (inactive)
- GI50 (HCT-116): > 100 µM (inactive)
- GI50 (SNB-19): > 100 µM (inactive)
- GI50 (MDA-MB-231): > 100 µM (inactive)
- GI50 (HOP-62): > 100 µM (inactive)
- GI50 (LOX IMVI): > 100 µM (inactive)
- GI50 (MDA-N): > 100 µM (inactive)
- GI50 (UACC-62): > 100 µM (inactive)
- GI50 (A498): > 100 µM (inactive)
- GI50 (SF-268): > 100 µM (inactive)
- GI50 (SK-MEL-2): > 100 µM (inactive)
- GI50 (MCF7): > 100 µM (inactive)
- GI50 (DU-145): > 100 µM (inactive)
- GI50 (M14): > 100 µM (inactive)
- GI50 (COLO 205): > 100 µM (inactive)
- GI50 (SK-OV-3): > 100 µM (inactive)
- GI50 (OVCAR-5): > 100 µM (inactive)
- GI50 (SW-620): > 100 µM (inactive)
- GI50 (UO-31): > 100 µM (inactive)
- GI50 (OVCAR-3): > 100 µM (inactive)
- GI50 (RPMI-8226): > 100 µM (inactive)
- GI50 (SR): > 100 µM (inactive)
- GI50 (Malme-3M): > 100 µM (inactive)
- GI50 (U-251): > 100 µM (inactive)
- GI50 (SK-MEL-28): > 100 µM (inactive)
- GI50 (NCI-H226): > 100 µM (inactive)
- GI50 (A549): > 100 µM (inactive)
- GI50 (T47D): > 100 µM (inactive)
- GI50 (UACC-257): > 100 µM (inactive)
- GI50 (OVCAR-4): > 100 µM (inactive)
- GI50 (CAKI-1): > 100 µM (inactive)
- GI50 (NCI-H23): > 100 µM (inactive)
- GI50 (NCI-H460): > 100 µM (inactive)
- GI50 (MDA-MB-435): > 100 µM (inactive)
- GI50 (HCT-15): > 100 µM

Structure (SMILES): Cc1cccc2c(O)c3c(O)cc(O)cc3nc12
- GI50 (OVCAR-8): > 10 µM (inactive)
- GI50 (SF-295): > 10 µM (inactive)
- GI50 (HCC 2998): > 10 µM (inactive)
- GI50 (HOP-92): > 10 µM (inactive)
- GI50 (NCI-H522): > 10 µM (inactive)
- GI50 (786-0): > 10 µM (inactive)
- GI50 (ACHN): > 10 µM (inactive)
- GI50 (K562): > 10 µM (inactive)
- GI50 (HT-29): > 10 µM (inactive)
- GI50 (EKVX): > 10 µM (inactive)
- GI50 (MOLT-4): > 10 µM (inactive)
- GI50 (TK-10): > 10 µM (inactive)
- GI50 (BT-549): 3.61 µM (inactive)
- GI50 (SNB-75): 7.24 µM (inactive)
- GI50 (RXF 393): > 10 µM (inactive)
- GI50 (Hs-578T): > 10 µM (inactive)
- GI50 (KM12): > 10 µM (inactive)
- GI50 (NCI/ADR-RES): > 10 µM (inactive)
- GI50 (SK-MEL-5): 9.71 µM (inactive)
- GI50 (SN12C): > 10 µM (inactive)
- GI50 (HCT-116): > 10 µM (inactive)
- GI50 (SNB-19): > 10 µM (inactive)
- GI50 (MDA-MB-231): > 10 µM (inactive)
- GI50 (HOP-62): > 10 µM (inactive)
- GI50 (LOX IMVI): > 10 µM (inactive)
- GI50 (MDA-N): > 10 µM (inactive)
- GI50 (UACC-62): > 10 µM (inactive)
- GI50 (A498): > 10 µM (inactive)
- GI50 (SF-268): > 10 µM (inactive)
- GI50 (SK-MEL-2): > 10 µM (inactive)
- GI50 (MCF7): > 10 µM (inactive)
- GI50 (DU-145): > 10 µM (inactive)
- GI50 (M14): > 10 µM (inactive)
- GI50 (SF-539): 6.12 µM (inactive)
- GI50 (COLO 205): > 10 µM (inactive)
- GI50 (IGROV-1): > 10 µM (inactive)
- GI50 (SK-OV-3): > 10 µM (inactive)
- GI50 (OVCAR-5): > 10 µM (inactive)
- GI50 (SW-620): > 10 µM (inactive)
- GI50 (PC-3): > 10 µM (inactive)
- GI50 (UO-31): > 10 µM (inactive)
- GI50 (OVCAR-3): > 10 µM (inactive)
- GI50 (RPMI-8226): > 10 µM (inactive)
- GI50 (Malme-3M): > 10 µM (inactive)
- GI50 (U-251): > 10 µM (inactive)
- GI50 (SK-MEL-28): > 10 µM (inactive)
- GI50 (NCI-H226): > 10 µM (inactive)
- GI50 (A549): > 10 µM (inactive)
- GI50 (CCRF-CEM): > 10 µM (inactive)
- GI50 (T47D): > 10 µM (inactive)
- GI50 (UACC-257): > 10 µM (inactive)
- GI50 (OVCAR-4): > 10 µM (inactive)
- GI50 (CAKI-1): > 10 µM (inactive)
- GI50 (NCI-H23): > 10 µM (inactive)
- GI50 (NCI-H460): > 10 µM (inactive)
- GI50 (MDA-MB-435): > 10 µM (inactive)
- GI50 (HCT-15): > 10 µM
